These results are taken from US20250034139A1, “AMINE COMPOUNDS HAVING ANTI-INFLAMMATORY, ANTIFUNGAL, ANTIPARASITIC, AND ANTICANCER ACTIVITY” (PHARMA CINQ, LLC, priority 2013, published 2025).

Converted amounts (≈) assume the structure as drawn. Where two headings read alike, the source gives them in different places.

The test system of one data set is THP-1 cells. In words: Example D: LPS-triggered THP-1 cell death assay, acute/5-hour and chronic/48-hour. Format: cell-based, Human. As to conditions: for Viable cell percent change, Chronic/48-hour, Mean: 10 ng/ml LPS, 0.1 μM test compound. The procedure: Compounds of the invention were tested at 0.1 μM versus AC in the LPS-triggered THP-1 cell death assay. Both acute/5-hour and chronic/48-hour phases of cell death were assessed. Compounds were screened in batches with DMSO as the negative control and AC as the high activity control.

The test system of data set [1] is Cryptococcus neoformans (serotype D). In words: Example K: Cryptococcus neoformans (serotype D) growth inhibition. It is filed as cell-based. Conditions: OD of 48 hour reading, 37° C., tested 4 to 60 μM, XLfit; for IC50: read-out: IC50 (concentration for 50% of inhibition). The procedure:
Cryptococcus neoformans (serotype D) were plated in 96 well plates with 144 μl/well of 8×10e5 CFU/ml in YM growth medium. Diluted compounds were then added to each well with concentration ranged from 4 to 60 μM as final concentration in duplicates. The plates were inoculated at 37° C. for total of 48 hours. Two readings of OD at 600 nm were measured after 30 and 48 hour treatments.
• 1. Pick a single colony of Cryptococcus from the YM agar plate using the inoculum loop and inoculate into a 125 ml flask containing 25 ml of YM growth medium. • 2. Incubate at 37° C. with shaking at 220 rpm for 24 hours with loosen lid to allow air in and facilitates growth. • 3. Examine an aliquot of the culture under a microscope for yeast cell morphology and lack of bacterial contamination. • 4. Dilute the overnight culture with YM medium at 1:100 dilution and count the number of cells as 1×10^6 cfu/ml. • 5. Make a final concentration of cells suspension at 8×10^5 cfu/ml in YM medium. • 6. Plate 144 μl/well of 8×10^5 cfu/ml cell suspension on 96-well plates. Part-II: Cryptococcus Growth Inhibition Testing with Compounds • 1. From 10 mM DMSO stock solutions, make serial dilutions of compounds to 0.1, 0.2, 0.3, 0.5, 1.0 and 1.5 mM solution. • 2. Add 6 ul each of diluted compound solutions per well in duplicates. The final concentrations were 0, 4, 8, 12, 20, 40 and 60 micromolar. • 3. Incubated all plates at 37° C. overnight (30 hours) with 150 rpm shaking. • 4. Read absorbance at OD600 for each plate. • 5. Leave plates in 37° C. incubator for another day and read absorbance at OD600 again at 48 hours to ensure the inhibitory effect of the compounds. • 6. Calculated the % inhibition and IC50 of each compound against untreated cells.

The test system of data set [2] is Cryptococcus neoformans (serotype A). The data set is described as follows: Example L: Cryptococcus neoformans (serotype A) growth inhibition. Format: cell-based. Conditions: OD of 26 hour reading, 30° C., XLfit; for IC50: read-out: IC50, uM (concentration for 50% of inhibition). The procedure:
Cryptococcus neoformans (serotype A) were plated in 96 well plates with 144 μl/well of 5×10e5 CFU/ml in YPD growth medium. Diluted compounds were then added to each well with concentration ranged from 0.05 to 10 μM as final concentration in duplicates. The plates were inoculated at 30° C. Two readings of OD at 600 nm were measured after 18 hr and […] treatments.
C12-imidazol had relative weak activity against Cryptococcus serotype A at low concentration. Data plotted was based on 26 hour reading because 18 hour reading was too low.
• 1. Pick a single colony of Cryptococcus from the Sabouraud Dextrose agar plate using the inoculum loop and inoculate into a 125 ml flask containing 25 ml of YPD growth medium • 2. Incubate at 30° C. with shaking at 220 rpm for 24 hours with loosen lid to allow air in and facilitates growth. • 3. Examine an aliquot of the culture under a microscope for yeast cell morphology and lack of bacterial contamination. • 4. Dilute the overnight culture with YPD medium at 1:100 dilution and count the number of cells as 8×10^6 cfu/ml. • 5. Make a final concentration of cells suspension at 5×10^5 cfu/ml in YPD medium after the stock culture had been stored at 4° C. for 3 days. • 6. Plate 144 μl/well of 5×10^5 cfu/ml cell suspension on 96-well plates. Part-II: Cryptococcus Growth Inhibition Testing with Compounds • 1. From 10 mM DMSO stock solutions, make serial dilutions of compounds to 0.0013, 0.0025, 0.0125, 0.025, 0.05, 0.125 and 0.25 mM solution • 2. Add 6 ul each of diluted compound solutions per well in duplicates. The final concentrations were 0, 0.05, 0.1, 0.5, 1.0, 2.0, 5.0 and 10 micromolar. • 3. Incubated all plates at 30° C. overnight with 175 rpm shaking. • 4. Read absorbance at OD600 after 18 and 26 hours for each plate. • 5. Calculated the % inhibition and IC50 of each compound against the untreated cell.

In data set [3] the test system is Candida albicans strain 3153. In words: Example H: Candida albicans growth inhibition (OD 600 nm). It is filed as cell-based. The method in brief:
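Growth inhibition computed as % versus DMSO control from OD600 after ~24 h at 30° C. Inoculum: washed overnight YPD culture of strain 3153 at 3.5×10^4 CFU/ml in YPD; final compound concentrations 0, 5, 10, 16, 22, 30, 40 μM, duplicate wells.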

In the next data set the test system is S. cerevisiae. In words: Example I: Saccharomyces cerevisiae growth inhibition (OD 600 nm). As to conditions: 18 hour incubation at 30° C., OD 600 nm, XLfit; for IC50: read-out: IC50, uM (50% inhibition of fungal growth). Format: cell-based.
For another data set, the system named is Trichophyton rubrum. The data set is described as follows: Example J: Trichophyton rubrum growth inhibition, scoring by eye. It is filed as cell-based. Conditions: 6 days at 30° C., tested 6 to 40 μM, read-out: MIC, μM (maximum inhibition concentration, scoring by eye). The procedure:
Trichophyton grown on two agar plates were collected by scraping into 10 ml saline and filtered through 8 μm filters. […] This experiment included some active compounds from previous experiment and added several untested compounds. […] Following table listed the maximum inhibition concentration (MIC) based on scoring by eye. Scrape frozen Trichophyton culture from ATCC vial and suspended in 100 μl PDB, and then plate on a PDA plate. Incubate plate at 30 C for 4 days. The plate was covered almost full. […] Take OD of collected solution at 520 nm and 600 nm: […] Part-II: […] Add 6 μl each of diluted compound solutions per well in triplicates. […] Wrap the plates with […] incubate all plates at 30° C. for 6 days. • Take picture of the plates on KODAK imager with 17 captures of 1.5 sec/capture for total of 25.5 second exposure.

The test system of data set [4] is 4T1 murine breast cancer cells. In words: Example S: in vitro anticancer screen, 4T1 cells, Wst1. Format: cell-based, mouse. Conditions: Mus musculus, 4T1, 18 h; for viability at 1 µM: read-out: 4T1 1 μM, percent of cancer cell survival relative to vehicle treated cells; for viability at 5 µM: read-out: 4T1 5 μM, percent of cancer cell survival relative to vehicle treated cells. The method in brief: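 Read-out is Wst1 absorbance (450 nm, reference 630 nm) after roughly 2 hr dye incubation, giving percent cell survival versus vehicle. Before that, compounds at 1 μM or 5 μM were applied for 18 hr to 4T1 cells plated at 1×10^4 per well.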

The subject of data set [5] is PC3 human prostate cancer cells. The data set is described as follows: Example S: in vitro anticancer screen, PC-3 cells, Wst1. Format: cell-based. Conditions: Homo sapiens, read-out: PC-3, percent of cancer cell survival relative to vehicle treated cells. The procedure, abridged:
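Values give percent survival relative to vehicle, read by Wst1 absorbance (450/630 nm) after 2 h dye incubation, in triplicate. Cells were seeded at 2×10^4/well and treated about 20 h with compound at 0.4, 0.5 or 2.5 μM, depending on compound.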

For data set [6], the system named is PC-3 prostate cancer cells. The data set is described as follows: Example T: sensitisation of PC-3 cells to doxorubicin, oxaliplatin, paclitaxel or vincristine, Wst1. Format: cell-based, human. As to conditions: for Doxorubicin 3.5 μM: percent cell survival / Oxaliplatin 100 μM: percent cell survival / Paclitaxel 50 μM: percent cell survival / Vincristine 100 nM: percent cell survival: chemotherapy agent alone normalized to 100%.

In data set [7] the test system is 4T1 mouse mammary breast cancer cells. The data set is described as follows: Example O: syngeneic 4T1 breast cancer growth in Balb/C mice. It is filed as in vivo. Conditions: 4T1 in female Balb/C mice. How it is done:
Cancer models in mice generally either involve syngeneic murine tumors in immunocompetent mice or xenografts of human tumors in immunocompromised mice. […] Mice received test compounds by oral gavage in 1% hydroxypropylmethylcellulose from day 2 until day 30. Tumor growth was assessed by caliper measurements twice per week and tumor weight after necropsy, and body weight was also monitored. Treatment groups were: • 1. […] HPMC) • 2. CI (120 μmol/kg/day) • 3. BA (120 μmol/kg/day) • 4. CP (120 μmol/kg/day) • 5. CQ (120 μmol/kg/day) • 6. AA (120 μmol/kg/day) • 7. AC (120 μmol/kg/day)

Take `CCCCCCCCCCOc1ccc(CNc2ncnc3ccccc23)cc1` [BN, N-[4-(Decyloxy)benzyl]quinazolin-4-amine]: the “Viable cell percent change, Chronic/48-hour, Mean” value in the data set on THP-1 cells was determined as 60.91%. In addition, the results for the IC50 in data set [1] (Cryptococcus deneoformans) and in data set [2] (Cryptococcus neoformans) were 1.03 µM and 3.73 µM, respectively. Also, the MIC in data set [2] (Cryptococcus neoformans, read-out: MIC, uM (concentration for maximum - 99% of inhibition)) worked out at 56.1 µM (≈ 22 µg/mL).
Consider `CCCCCCCCn1cnc2cnc3ccccc3c21` [BP, 1-Octyl-1H-imidazo[4,5-c]quinoline], for which the MIC is 90.6 µM (≈ 25.5 µg/mL) in data set [3] (Candida albicans, 3153, 24 hrs at 30° C., YPD, XLfit, read-out: MIC (uM) (99% of inhibition of fungal growth)); 50.8 µM (≈ 14.3 µg/mL) in the data set on S. cerevisiae (Saccharomyces cerevisiae, read-out: MIC, uM (99% of inhibition of fungal growth)); 12 µM (≈ 3.38 µg/mL) with Trichophyton rubrum (Trichophyton rubrum, 144 h). Also, the IC50 is 28.8 µM in [3] (Candida albicans, 3153, read-out: IC50 (uM) (50% inhibition of fungal growth), 24 hrs at 30° C., YPD, XLfit) and 35.6 µM in the data set with S. cerevisiae (Saccharomyces cerevisiae). Further, the viability at 1 µM in [4] (1 μM, 18 hr, Wst1) came out at 33.6%. The viability at 5 µM in data set [4] (5 μM, 18 hr, Wst1) is 23.3%. In addition, the viability at 0.5 µM in [5] (PC-3, 0.5 μM, approximately 20 hours, Wst1) was determined as 50.5%; in data set [6] (Homo sapiens, PC-3 cells, compound 0.5 μM alone, 72 hours, Wst1, vehicle = 100, read-out: No Chemo: percent cell survival), 50.5%. For the same compound, in [6] (PC-3 cells, compound 0.5 μM + doxorubicin 3.5 μM, 72 hours), the “Doxorubicin 3.5 μM: percent cell survival” value came to 79.1%. For the same compound, in [6] (PC-3 cells, compound 0.5 μM + oxaliplatin 100 μM, 72 hours), the “Oxaliplatin 100 μM: percent cell survival” value is listed as 113.6%. In addition, the “Paclitaxel 50 μM: percent cell survival” value in data set [6] (PC-3 cells, compound 0.5 μM + paclitaxel 50 μM, 72 hours) was 95.1%. In addition, the “Vincristine 100 nM: percent cell survival” value in data set [6] (PC-3 cells, compound 0.5 μM + vincristine 100 nM, 72 hours) was 93%.
Regarding `CCCCOCCCCCCCCNc1ccnc2ccccc12` [CI, N-(8-Butoxyoctyl)quinolin-4-amine], in the data set on THP-1 cells, the “Viable cell percent change, Chronic/48-hour, Mean” value is 28.46%. For the same compound, the “activity relative to AC in the LPS-triggered THP-1 cell death assay, in words” value in the data set on THP-1 cells (0.1 μM, 5-hour and 48-hour time points) is “equivalent activity to AC at both the 5-hour and 48-hour time points”. Also, the “Final Tumor Volume” value in [7] (120 μmol/kg/day oral gavage, day 2 to day 30) turned out to be 702 ± 244 mm^3. For the same compound, in [7] (120 μmol/kg/day oral, final vs initial body weight), the “Δ BW %” value is −5.5%. Also, the “Final Body Weight” value in data set [7] (120 μmol/kg/day oral, final, in g (unit assumed)) worked out at 20.6 ± 0.6. For the same compound, the “Initial Body Weight” value in data set [7] (120 μmol/kg/day oral, initial (baseline)) is 21.8 ± 0.8 g. In data set [4], the viability at 1 µM was found to be 28.3% and the viability at 5 µM amounted to 19.1%. Besides, the viability at 0.4 µM in data set [5] (PC-3, 20 h) was 77.9%. Moreover, in [6] (Homo sapiens, PC-3, 72 h, read-out: No Chemo: percent cell survival), the viability at 0.4 µM stood at 77.9%. For the same compound, in data set [6] (PC-3 cells, compound 0.4 μM + doxorubicin 3.5 μM, 72 hours), the “Doxorubicin 3.5 μM: percent cell survival” value came out at 67.6%. Also, the “Oxaliplatin 100 μM: percent cell survival” value in data set [6] (PC-3 cells, compound 0.4 μM + oxaliplatin 100 μM, 72 hours) was 21.8%. For the same compound, in [6] (PC-3 cells, compound 0.4 μM + paclitaxel 50 μM, 72 hours), the “Paclitaxel 50 μM: percent cell survival” value turned out to be 48.7%. In data set [6] (PC-3 cells, compound 0.4 μM + vincristine 100 nM, 72 hours), the “Vincristine 100 nM: percent cell survival” value is 33.8%.
For `CCCCCCCCCCCCn1ccnc1` [Compound C12-Im, reference compound], in the data set on S. cerevisiae, the “MIC, uM (99% of inhibition of fungal growth)” value worked out at 29.04 µM and the IC50 is 15.2 µM. Also, in the data set on Trichophyton rubrum, the MIC is reported as 18 µM (≈ 4.26 µg/mL). Also, in data set [1], the “MIC (concentration for maximum-99% of inhibition)” value is 20.54 and the IC50 was determined as 1.81 µM. In data set [2], the “MIC, uM (concentration for maximum - 99% of inhibition)” value was determined as 10.83 µM and the IC50 was 3.67 µM.
